Measured values reported in ChEMBL document CHEMBL3244163, “Antifungal agents. 5. Chemical modification of antibiotics from Polyangium cellulosum var. fulvum. Alcohol, ketone, aldehyde, and oxime analogues of ambruticin” (1979).
Values after ≈ are worked out from the molar mass of the structure shown. Active and inactive are the calls of the source. The calls are words filed in the database; no cut-off is given here.

How the values were obtained:
Candida albicans = assay: Antifungal activity against Candida albicans by standard broth dilution technique; type: functional, organism-based
[1] = Antifungal activity against Microsporum fulvum assessed as growth inhibition after 3 days by standard broth dilution technique; type: functional; details: Arthroderma fulvum
Streptococcus pyogenes = assay: Antibacterial activity against Streptococcus pyogenes by standard broth dilution technique; type: functional, organism-based
Histoplasma capsulatum = assay: Antifungal activity against Histoplasma capsulatum assessed as growth inhibition after 3 days by standard broth dilution technique; type: functional; details: 72 h

SMILES | Activity (Candida albicans) | MIC [1] [µg/mL] | Activity (Streptococcus pyogenes) | MIC (Histoplasma capsulatum) [µg/mL]
CC[C@H]1O[C@@H](/C(C)=C/[C@H](C)/C=C/[C@H]2[C@@H](C)[C@@H]2/C=C/[C@@H]2O[C@H](CCO)C[C@@](O)(CC)[C@H]2O)CC=C1C | inactive | 1.56 (≈ 3.19 µM) | inactive | 1.56 (≈ 3.19 µM)
CC[C@H]1O[C@@H](/C(C)=C/[C@H](C)/C=C/[C@H]2[C@@H](C)[C@@H]2/C=C/[C@@H]2O[C@H](CCOC(=O)Nc3ccccc3)C[C@H](OC(=O)Nc3ccccc3)[C@H]2OC(=O)Nc2ccccc2)CC=C1C | inactive | > 50 | inactive | 
CC[C@H]1O[C@@H](/C(C)=C/[C@H](C)/C=C/[C@H]2[C@@H](C)[C@@H]2/C=C/[C@@H]2O[C@H](CC(O)(C(C)C)C(C)C)C[C@H](O)[C@H]2O)CC=C1C | inactive | > 50 | inactive | 50 (≈ 91.8 µM)
CC[C@H]1O[C@@H](/C(C)=C/[C@H](C)/C=C/[C@H]2[C@@H](C)[C@@H]2/C=C/[C@@H]2O[C@H](CC(O)(c3ccccc3)c3ccccc3)C[C@H](O)[C@H]2O)CC=C1C | inactive | > 50 | inactive | 50 (≈ 81.6 µM)
CC[C@H]1O[C@@H](/C(C)=C/[C@H](C)/C=C/[C@H]2[C@@H](C)[C@@H]2/C=C/[C@@H]2O[C@H](CC(=O)OC)C[C@H](O)[C@H]2O)CC=C1C | inactive | 0.39 (≈ 0.798 µM) | inactive | 0.39 (≈ 0.798 µM)
CC[C@H]1O[C@@H](/C(C)=C/[C@H](C)/C=C/[C@H]2[C@@H](C)[C@@H]2/C=C/[C@@H]2O[C@H](CC(=O)C(C)(C)C)C[C@H](O)[C@H]2O)CC=C1C | inactive | > 50 | inactive | 12.5 (≈ 24.3 µM)
CC[C@H]1O[C@@H](/C(C)=C/[C@H](C)/C=C/[C@H]2[C@@H](C)[C@@H]2/C=C/[C@@H]2O[C@H](CC(O)(CC)CC)C[C@H](O)[C@H]2O)CC=C1C | inactive | 3.12 (≈ 6.04 µM) | inactive | 1.56 (≈ 3.02 µM)
CCC(O)C[C@@H]1C[C@H](O)[C@@H](O)[C@H](/C=C/[C@H]2[C@H](C)[C@@H]2/C=C/[C@@H](C)/C=C(\C)[C@H]2CC=C(C)[C@@H](CC)O2)O1 (some centres undefined) | inactive |  | inactive | 0.78 (≈ 1.6 µM)
CC[C@H]1O[C@@H](/C(C)=C/[C@H](C)/C=C/[C@H]2[C@@H](C)[C@@H]2/C=C/[C@@H]2O[C@H](CC(=O)OC)CC(=O)[C@H]2O)CC=C1C | inactive | 0.195 (≈ 0.401 µM) | inactive | 0.39 (≈ 0.801 µM)
CC[C@H]1O[C@@H](/C(C)=C/[C@H](C)/C=C/[C@H]2[C@@H](C)[C@@H]2/C=C/[C@@H]2O[C@H](CCO)C[C@@H](O)[C@H]2O)CC=C1C | inactive | 0.39 (≈ 0.847 µM) | inactive | 0.39 (≈ 0.847 µM)
CC[C@H]1O[C@@H](/C(C)=C/[C@H](C)/C=C/[C@H]2[C@@H](C)[C@@H]2/C=C/[C@@H]2O[C@H](CC(O)C(C)(C)C)C[C@H](O)[C@H]2O)CC=C1C (some centres undefined) | inactive | > 50 | inactive | 6.25 (≈ 12.1 µM)
CC[C@H]1O[C@@H](/C(C)=C/[C@H](C)/C=C/[C@H]2[C@@H](C)[C@@H]2/C=C/[C@@H]2O[C@H](CCO)C[C@](C)(O)[C@H]2O)CC=C1C | inactive | 0.78 (≈ 1.64 µM) | inactive | 0.78 (≈ 1.64 µM)
CC[C@H]1O[C@@H](/C(C)=C/[C@H](C)/C=C/[C@H]2[C@@H](C)[C@@H]2/C=C/[C@@H]2O[C@H](CCO)C[C@H](O)[C@H]2O)CC=C1C | inactive | 0.098 (≈ 0.213 µM) | inactive | 0.098 (≈ 0.213 µM)
CC[C@H]1O[C@@H](/C(C)=C/[C@H](C)/C=C/[C@H]2[C@@H](C)[C@@H]2/C=C/[C@@H]2O[C@H](CC(=O)OC)C[C@@H](O)[C@H]2O)CC=C1C | inactive | 0.39 (≈ 0.798 µM) | inactive | 0.39 (≈ 0.798 µM)
CC[C@H]1O[C@@H](/C(C)=C/[C@H](C)/C=C/[C@H]2[C@@H](C)[C@@H]2/C=C/[C@@H]2O[C@H](CC(=O)O)C[C@@H](O)[C@H]2O)CC=C1C | inactive | 0.195 (≈ 0.411 µM) | inactive | 0.78 (≈ 1.64 µM)
CC[C@H]1O[C@@H](/C(C)=C/[C@H](C)/C=C/[C@H]2[C@@H](C)[C@@H]2/C=C/[C@@H]2O[C@H](CC(=O)OC)C/C(=N/O)[C@H]2O)CC=C1C | inactive |  | inactive | 0.78 (≈ 1.55 µM)

SMILES | Activity (Candida albicans) | MIC [1] [µg/mL] | Activity (Streptococcus pyogenes) | MIC (Histoplasma capsulatum) [µg/mL]
CC[C@H]1O[C@@H](/C(C)=C/[C@H](C)/C=C/[C@H]2[C@@H](C)[C@@H]2/C=C/[C@@H]2O[C@H](CCOC(=O)Nc3ccc(Cl)cc3)C[C@H](OC(=O)Nc3ccc(Cl)cc3)[C@H]2OC(=O)Nc2ccc(Cl)cc2)CC=C1C | inactive | > 50 | inactive | 
CC[C@H]1O[C@@H](/C(C)=C/[C@H](C)/C=C/[C@H]2[C@@H](C)[C@@H]2/C=C/[C@@H]2O[C@H](CCOC(C)=O)C[C@H](OC(C)=O)[C@H]2OC(C)=O)CC=C1C | inactive | > 50 | inactive | 50 (≈ 85.2 µM)
CC[C@H]1O[C@@H](/C(C)=C/[C@H](C)/C=C/[C@H]2[C@@H](C)[C@@H]2/C=C/[C@@H]2O[C@H](CCO)CC(=O)[C@H]2O)CC=C1C | inactive | 0.78 (≈ 1.7 µM) | inactive | 6.25 (≈ 13.6 µM)
CC[C@H]1O[C@@H](/C(C)=C/[C@H](C)/C=C/[C@H]2[C@@H](C)[C@@H]2/C=C/[C@@H]2O[C@H](CC(=O)O)C/C(=N/O)[C@H]2O)CC=C1C | inactive | 1.56 (≈ 3.2 µM) | inactive | 3.12 (≈ 6.4 µM)
CC[C@H]1O[C@@H](/C(C)=C/[C@H](C)/C=C/[C@H]2[C@@H](C)[C@@H]2/C=C/[C@@H]2O[C@H](CCOC(=O)Nc3ccc(Br)cc3)C[C@H](OC(=O)Nc3ccc(Br)cc3)[C@H]2OC(=O)Nc2ccc(Br)cc2)CC=C1C | inactive | > 50 | inactive | 
CC[C@H]1O[C@@H](/C(C)=C/[C@H](C)/C=C/[C@H]2[C@@H](C)[C@@H]2/C=C/[C@@H]2O[C@H](CCO)C[C@@](O)(c3ccccc3)[C@H]2O)CC=C1C | inactive | 6.25 (≈ 11.6 µM) | inactive | 3.12 (≈ 5.81 µM)
CC[C@H]1O[C@@H](/C(C)=C/[C@H](C)/C=C/[C@H]2[C@@H](C)[C@@H]2/C=C/[C@@H]2O[C@H](CC(=O)O)C[C@H](O)[C@H]2O)CC=C1C [AMBRUTICIN] | inactive | 0.098 (≈ 0.206 µM) | inactive | 0.39 (≈ 0.822 µM)
CCC(=O)C[C@@H]1C[C@H](O)[C@@H](O)[C@H](/C=C/[C@H]2[C@H](C)[C@@H]2/C=C/[C@@H](C)/C=C(\C)[C@H]2CC=C(C)[C@@H](CC)O2)O1 | inactive | 0.78 (≈ 1.6 µM) | inactive | 0.78 (≈ 1.6 µM)
CC[C@H]1O[C@@H](/C(C)=C/[C@H](C)/C=C/[C@H]2[C@@H](C)[C@@H]2/C=C/[C@@H]2O[C@H](CC(C)O)C[C@H](O)[C@H]2O)CC=C1C (some centres undefined) | inactive | 0.195 (≈ 0.411 µM) | inactive | 0.098 (≈ 0.206 µM)
CC[C@H]1O[C@@H](/C(C)=C/[C@H](C)/C=C/[C@H]2[C@@H](C)[C@@H]2/C=C/[C@@H]2O[C@H](CC(=O)c3ccccc3)C[C@H](O)[C@H]2O)CC=C1C | inactive | 25 (≈ 46.8 µM) | inactive | 6.25 (≈ 11.7 µM)
CC[C@H]1O[C@@H](/C(C)=C/[C@H](C)/C=C/[C@H]2[C@@H](C)[C@@H]2/C=C/[C@@H]2O[C@H](CC(C)(C)O)C[C@H](O)[C@H]2O)CC=C1C | inactive | 0.195 (≈ 0.399 µM) | inactive | 0.78 (≈ 1.6 µM)
CC[C@H]1O[C@@H](/C(C)=C/[C@H](C)/C=C/[C@H]2[C@@H](C)[C@@H]2/C=C/[C@@H]2O[C@H](CCO)C/C(=N\O)[C@H]2O)CC=C1C | inactive | 0.195 (≈ 0.412 µM) | inactive | 0.098 (≈ 0.207 µM)
CC[C@H]1O[C@@H](/C(C)=C/[C@H](C)/C=C/[C@H]2[C@@H](C)[C@@H]2/C=C/[C@@H]2O[C@H](CC(O)c3ccccc3)C[C@H](O)[C@H]2O)CC=C1C (some centres undefined) | inactive | 1.56 (≈ 2.91 µM) | inactive | 1.56 (≈ 2.91 µM)
CC[C@H]1O[C@@H](/C(C)=C/[C@H](C)/C=C/[C@H]2[C@@H](C)[C@@H]2/C=C/[C@@H]2O[C@H](CC=O)C[C@H](O)[C@H]2O)CC=C1C | inactive | 0.098 (≈ 0.214 µM) | inactive | 0.78 (≈ 1.7 µM)
CC[C@H]1O[C@@H](/C(C)=C/[C@H](C)/C=C/[C@H]2[C@@H](C)[C@@H]2/C=C/[C@@H]2O[C@H](CC(C)=O)C[C@H](O)[C@H]2O)CC=C1C | inactive | 0.195 (≈ 0.413 µM) | inactive | 0.39 (≈ 0.825 µM)
